The values below come from US20120309706A1, “COMBINED TREATMENT OF PANCREATIC CANCER WITH GEMCITABINE AND MASITINIB” (AB SCIENCE, priority 2010, published 2012).

In one series the test system is BxPC-3. The series is described as follows: WST-1 proliferation/survival assay, BxPC-3. The class given is cell-based, human. The note with it: BxPC-3, single agent, 1% FCS. On the procedure: (§1) Sensitivity of pancreatic tumour cell lines to masitinib or gemcitabine as single agents, or in combination, was assessed using WST-1 proliferation assays. Four cell lines were tested for their sensitivity to masitinib (A) or gemcitabine (B). […] (D) Sensitivity of resistant Mia Paca-2 cells to various tyrosine kinase inhibitors alone (top) or in combination with gemcitabine (bottom) was analyzed in WST-1 proliferation assays.
(§2) Pancreatic cancer cells lines (Mia Paca-2, Panc-1, BxPC-3 and Capan-2) were obtained from Dr. Juan Iovanna (Inserm, France). Cells were maintained in RPMI (BxPC-3, Capan-2) or DMEM (Mia Paca-2, Panc-1) medium containing glutamax-1 (Lonza), supplemented with 100 U/ml penicillin/100 μg/ml streptomycin, and 10% foetal calf serum (FCS) (AbCys, Lot S02823S1800). Expression of tyrosine kinases was determined by RT-PCR using Hot Star Taq (Qiagen GmbH, Hilden, Germany) in a 2720 Thermal Cycler (Applied Biosystems).
Cytotoxicity of masitinib and gemcitabine was assessed using a WST-1 proliferation/survival assay (Roche diagnostic) in growth medium containing 1% FCS. Treatment was started with the addition of the respective drug. […] After 72 hours WST-1 reagent was added and incubated with the cells for 4 hours before absorbance measurement at 450 nm in an EL800 Universal Microplate Reader (Bio-Tek Instruments Inc.). […]

Another series has as its system Capan-2. The series is described as follows: WST-1 proliferation/survival assay, Capan-2. The class given is cell-based, human. The note with it: Capan-2, single agent, 1% FCS. On the procedure: as §1, §2
(§3) Cytotoxicity of masitinib and gemcitabine was assessed using a WST-1 proliferation/survival assay (Roche diagnostic) in growth medium containing 1% FCS. Treatment was started with the addition of the respective drug. […] After 72 hours WST-1 reagent was added and incubated with the cells for 4 hours before absorbance measurement at 450 nm in an EL800 Universal Microplate Reader (Bio-Tek Instruments Inc.). Media alone was used as a blank and proliferation in the absence of compounds served as positive control. Results are representative of three/four experiments. The masitinib sensitisation index is the ratio of the IC50 of gemcitabine against the IC50 of the drug combination.
Background: Tetrazolium dyes change colour on reduction, which living cells bring about.

The test system of another series is Mia Paca-2. The series is described as follows: WST-1 proliferation/survival assay, Mia Paca-2. The class given is cell-based, human. The note with it: for IC50: Homo sapiens; for response of Mia Paca-2 cells to gemcitabine after pre-incubation with TKI: 10 μM imatinib or dasatinib, compared to masitinib. Here is the method: as §1, §2, §3
Comparison of masitinib to other TKIs for their potential to sensitize gemcitabine-resistant pancreatic cancer cells: Similar TKI plus gemcitabine combination experiments to those described above were performed with gemcitabine-resistant Mia Paca-2 cells to compare masitinib with imatinib (Gleevec™, STI-571; Novartis, Basel, Switzerland), a TKI targeting ABL, PDGFR, and c-Kit); and dasatinib (Sprycel, Bristol-Myers Squibb), a TKI targeting SRC, ABL, PDGFR, and c-Kit.

The test system of the next series is Panc-1. Nature of the series: WST-1 proliferation/survival assay, Panc-1. The class given is cell-based. The note with it: Homo sapiens. On the procedure:
as §1, §2, §3

Series [1] relates to Mia Paca-2 pancreatic tumours. The series is described as follows: Nog-SCID mouse model of human pancreatic cancer. The note with it: for Tumour volume, Median: following 28 days of treatment (day 56). The class given is in vivo, Nog-SCID mice. Here is the method: Mia Paca-2 tumour cells (10^7) were injected into the flank of Nog-SCID mice. Treatment was initiated 28 days after tumour cell injection. The different groups were treated with either: twice weekly injections of gemcitabine (i.p. 50 mg/kg), daily oral masitinib (100 mg/kg), water (control), or combined daily oral masitinib (100 mg/kg) and twice weekly injections of gemcitabine. Mice were treated for 56 days.
Male Nog-Scid mice (7 weeks old) were obtained from internal breeding and were housed under specific pathogen-free conditions at 20±1° C. in a 12-hour light/12-hour dark cycle and ad libitum access to food and filtered water. Mia Paca-2 cells were cultured as described above. At day 0 (D0), mice were injected with 107 Mia Paca-2 cells in 200 μl PBS into the right flank. Tumours were allowed to grow for 1.5 to 4 weeks until the desired tumour size was reached (˜200 mm3). At day 28, animals were allocated into four treatment groups (n=7 to 8 per group), ensuring that each group's mean body weight and tumour volume were well matched, and treatment was initiated for a duration of 4 to 5 weeks. Treatments consisted of either: a) daily sterile water for the control group, b) an intraperitoneal (i.p.) injection of 50 mg/kg gemcitabine twice a week, c) daily gavage with 100 mg/kg masitinib, or d) combined i.p injection of 50 mg/kg gemcitabine twice a week and daily gavage with 100 mg/kg masitinib. Tumour size was measured with callipers and tumour volume was estimated using the formula: volume=(length×width2)/2. The tumour growth inhibition ratio was calculated as (100)×(median tumour volume of treated group)/(median tumour volume of control group).
Relative changes in tumour volumes were compared between treatment groups using a variance analysis (ANOVA). Normality of relative changes in tumour volumes between day 28 and day 56 was first tested using the Shapiro-Wilk test of normality. […]
The tumour size was monitored every 7 days until day 56, after which time the animals were sacrificed.

For series [2], the system named is Mia Paca-2 cells. Nature of the series: Gene expression profiling (Affymetrix U133 Plus 2.0 microarrays) and pathway analysis. The settings on record: for down-regulated genes / up-regulated genes: fold-change threshold of 2; for deregulated genes: fold-change threshold of 2, treated/untreated; for deregulated genes specific to the treatment: pathway analysis, Ingenuity. The class given is cell-based, human. On the procedure:
Gene expression profiling of cell lines (from 2 μg RNA) was assessed using whole-genome Affymetrix U133 Plus 2.0 human oligonucleotide microarrays. Generation of expression matrices, data annotation, filtering and processing have been previously described [Giroux V et al., 2006 Clin Cancer Res 12: 235-241]. Microarray statistics and cluster analysis were performed by the Robust Multichip Average method in R using Bioconductor and using the Cluster and TreeView programs. Drug response signatures were generated by differential analysis, which compared the expression profile of each treated cell line with that of the untreated cell line by measuring the fold-change (treated/untreated) of each probe set. The lists of differential genes were interrogated using the Ingenuity Pathway Analysis software (Version 5.5.1-1002; Ingenuity Systems, Redwood City, Calif.) with a significance threshold for the corrected p-value<0.05. MIAME compliant array data can be accessed at (www.ebi.ac.uk/arrayexpress) using the accession number GSE17987.
Whole-genome clustering of the four cell samples sorted them into two opposite clusters (data not shown). The two treatment conditions with gemcitabine clustered together (left cluster), whereas cells treated with masitinib alone clustered with the untreated cells (right cluster). […] This was confirmed by the differential analysis of expression profile. […] These drug response expression signatures were characterised via pathway analysis using Ingenuity software. […] This pathway is involved in pancreatic development and re-activation of this signalling system has been implicated in pancreatic carcinoma with reported nuclear localisation of the downstream effector β-catenin. […] Three other pathways altered to a lesser extent included: ERK/MAPK Signalling, CDK5 Signalling, and PI3K/AKT Signalling (p=0.016, 0.025, 0.039, respectively).

The next series has as its system pancreatic cancer. The settings on record: cited from earlier work.
A further series has as its target FAK (Homo sapiens, UniProt Q05397). Nature of the series: FAK activity, preliminary in vitro data. The class given is biochemical. The text has this: Altogether, this could provide a mechanism of action for masitinib on pancreatic cancer through the reduction of tumour progression or the inhibition of mast cell migration and activation, or both.
The test system of series [3] is Mia Paca-2 cells. Nature of the series: In vitro tyrosine phosphorylation assay (western blot, anti-pTyr). The note with it: 6 hours, at 1 μM and beyond. The class given is cell-based, human. Here is the method: (A) Messenger RNA expression of various receptor and cytoplasmic tyrosine kinases was analyzed by RT-PCR. Universal human reference total RNA was used as positive control for primers and the ubiquitous β-glucoronidase (GUS) served as an internal control for all RT-PCR reactions. (B) Tyrosine phosphorylation of proteins in response to masitinib. Mia Paca-2 cells (5×10^6) were treated for 6 hours at 37° C. with various concentrations of masitinib. Total cell lysates were prepared and tyrosine phosphorylation was analyzed by western blot with antibodies against phosphotyrosine (anti-pTyr). […] MW=molecular weight. […] Proteins (20 μg) were resolved by SDS-PAGE 10%, followed by western blotting and immunostaining. The following primary antibodies were used: rabbit anti-phospho-GRB2 antibody (sc-255 1:1000, Santa Cruz, Calif.), and anti-phosphotyrosine antibody (4G10 1:1000, Cell Signalling Technology, Ozyme, France). […] Immunoreactive bands were detected using enhanced chemiluminescent reagents (Pierce, USA). To estimate the range of masitinib concentration necessary to sensitize pancreatic tumor cell lines to chemotherapy, we assessed the ability of masitinib to block protein tyrosine phosphorylation by western blot analysis in cell lysates. […]
A general note: A western blot detects proteins with antibodies after separation by electrophoresis.

The nature of series [4]: Masitinib clearance half-life. The note with it: human, in vivo. An excerpt:
At the cut-off date for safety (17 Oct. 2008), all 22 patients enrolled had experienced at least one dose of masitinib. […] One patient reported a masitinib-related grade 4 neutropenia. The most common masitinib-related, haematological grade 3 AEs were anaemia (22.7%), lymphopenia (22.7%), neutropenia (18.2%) and leucopoenia (18.2%). The most common, masitinib-related, non-haematological grade 3 AE was asthenia (13.6% of patients). […] One patient's death was reported to be due to several AEs (two syncopes, severe abdominal pain, hypotension, grade 2 anemia, acute renal failure and respiratory distress syndrome) and was suspected to be related to masitinib at the time of occurrence. However, masitinib had been interrupted for 6 days before these fatal AEs occurred. […] Thus, the death of this patient is most unlikely related to masitinib. Four other deaths occurred during this study but none were suspected to be treatment related.

Where [5] appears, read: Mia Paca-2, single agent, 72 hours, 1% FCS, read-out: IC50.
Where [6] appears, read: Panc-1, single agent, 72 hours, 1% FCS, read-out: IC50.

Molecules are shown by their SMILES. Like-named read-outs stand apart in the source and are kept apart here. Marks after values point to notes of the source that are not given here. Where only a bound is given, the exact number is not on record here.

Chain of FAK (Q05397 whole entry): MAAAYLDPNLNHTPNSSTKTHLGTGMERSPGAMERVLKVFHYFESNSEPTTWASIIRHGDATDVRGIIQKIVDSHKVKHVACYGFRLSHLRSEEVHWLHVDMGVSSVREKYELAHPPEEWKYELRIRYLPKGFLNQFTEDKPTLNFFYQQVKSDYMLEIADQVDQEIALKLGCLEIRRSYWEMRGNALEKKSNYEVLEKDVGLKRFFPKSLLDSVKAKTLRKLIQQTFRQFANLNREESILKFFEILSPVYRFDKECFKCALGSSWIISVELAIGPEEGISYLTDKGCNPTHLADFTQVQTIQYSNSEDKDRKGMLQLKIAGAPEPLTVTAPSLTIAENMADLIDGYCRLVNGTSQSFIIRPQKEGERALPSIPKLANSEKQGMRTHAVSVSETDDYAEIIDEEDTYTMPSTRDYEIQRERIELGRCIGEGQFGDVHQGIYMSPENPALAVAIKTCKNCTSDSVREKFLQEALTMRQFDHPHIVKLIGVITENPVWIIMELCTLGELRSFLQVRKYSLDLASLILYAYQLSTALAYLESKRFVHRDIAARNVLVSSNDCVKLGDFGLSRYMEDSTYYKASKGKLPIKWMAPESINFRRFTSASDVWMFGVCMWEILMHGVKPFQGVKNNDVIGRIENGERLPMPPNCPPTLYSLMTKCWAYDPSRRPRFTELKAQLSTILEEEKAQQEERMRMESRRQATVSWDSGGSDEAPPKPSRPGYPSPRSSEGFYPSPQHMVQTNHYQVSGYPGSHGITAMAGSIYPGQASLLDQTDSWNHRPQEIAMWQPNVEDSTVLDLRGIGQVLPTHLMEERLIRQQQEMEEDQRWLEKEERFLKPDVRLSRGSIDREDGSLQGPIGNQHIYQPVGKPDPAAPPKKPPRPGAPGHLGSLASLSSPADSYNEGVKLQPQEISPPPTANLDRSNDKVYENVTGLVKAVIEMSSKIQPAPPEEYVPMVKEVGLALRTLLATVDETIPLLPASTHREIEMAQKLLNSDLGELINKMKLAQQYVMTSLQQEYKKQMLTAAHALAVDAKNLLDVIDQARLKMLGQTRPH

As for `Nc1ccn(C2OC(CO)C(O)C2(F)F)c(=O)n1` (centres unmarked) [Gemcitabine, 4-amino-1-[3,3-difluoro-4-hydroxy-5-(hydroxymethyl)tetrahydrofuran-2-yl]-1H-pyrimidin-2-one], the IC50 (commonly the midpoint of a concentration-inhibition curve) with BxPC-3 (72 hours) was 2 to 20 µM; with Capan-2 (72 hours) it was 2 µM; with Capan-2 (Homo sapiens, Capan-2, 72 h), 2 to 20 µM; in the series on Mia Paca-2 (Mia Paca-2, gemcitabine monotherapy, read-out: IC50 (resistance)), more than 2500 µM; with Mia Paca-2 (setting [5]), more than 10 µM; with Panc-1 (Panc-1, gemcitabine monotherapy, read-out: IC50 (resistance)), more than 2500 µM. For the same compound, the half-inhibitory concentration (IC50) with Panc-1 (setting [6]) is more than 10 µM. Besides, the “tumour growth between day 35 and 49” value in series [1] (FIG. 3) is “stabilization of tumour growth”. Besides, the “Tumour volume, Median” value in [1] is listed as 662* mm^3. Further, the down-regulated genes in the series with Mia Paca-2 cells [2] is listed as 113 genes. The up-regulated genes in the series with Mia Paca-2 cells [2] is on record as 1048 genes. Besides, the deregulated genes in the series on Mia Paca-2 cells [2] was determined as 1161 genes. Besides, the “deregulated genes specific to the treatment” value in the series with Mia Paca-2 cells [2] worked out at 818 genes. Besides, in the series on pancreatic cancer (Burris et al. 1997, advanced pancreatic population (locally advanced and metastatic)), the “medium TTP” value is listed as 2.33 months. In the series with pancreatic cancer (Storniolo et al. 1999, solely locally advanced patients), the TTP threshold is 4.1 months. Besides, the 1-year survival rate was 17% in the series on pancreatic cancer (clinical trial of erlotinib plus gemcitabine versus gemcitabine monotherapy, p=0.023) and 21% in the series on pancreatic cancer (standard gemcitabine therapy). For the same compound, the “median OS” value in the series with pancreatic cancer (clinical trial of erlotinib plus gemcitabine versus gemcitabine monotherapy) is 5.91 months. Also, the “12-month survival rates, published” value in the series on pancreatic cancer (comparison) is reported as 21%. The “median OS, published” value with pancreatic cancer (comparison) was 6 months. Besides, the “median overall survival (OS)” value with pancreatic cancer (standard gemcitabine therapy, locally advanced, unresectable, or metastatic pancreatic adenocarcinoma) is 6 months.

In the case of `Cc1ccc(NC(=O)c2ccc(CN3CCN(C)CC3)cc2)cc1Nc1nc(-c2cccnc2)cs1` [Masitinib, 4-(4-methylpiperazin-1-ylmethyl)-N-[4-methyl-3-(4-pyridin-3ylthiazol-2-ylamino)phenyl]benzamide], on FAK, the FAK auto-activation result was “partially inhibits FAK auto-activation”. For the same compound, the “reduces FAK activity” value on FAK (masitinib 1 μM) is given as 21%. The “protein tyrosine phosphorylation (western blot)” value in the series with Mia Paca-2 cells [3] is “clearly inhibited tyrosine phosphorylation”. For the same compound, the IC50 in the series with BxPC-3 (Homo sapiens, BXPC-3, 72 h) lay in the range of 5 to 10 µM. In the series on Capan-2 (Homo sapiens, Capan-2, 72 h), the IC50 is 5 to 10 µM. Besides, the “response of Mia Paca-2 cells to gemcitabine after pre-incubation with TKI” value in the series on Mia Paca-2 was “able to restore sensitivity to gemcitabine”. For the same compound, the 50% inhibitory concentration (IC50) with Mia Paca-2 (setting [5]) fell in the range of 5 to 10 µM. Moreover, in the series on Panc-1 (setting [6]), the IC50 lay within 5 to 10 µM. Further, in [1], the “Tumour volume, Median” value came out at 865 mm^3. In the series on Mia Paca-2 cells [2], the down-regulated genes came to 29 genes, the up-regulated genes amounted to 325 genes, the deregulated genes was 354 genes and the “deregulated genes specific to the treatment” value is reported as 201 genes. The half-life (in general, how long it takes for the measured level to halve) in [4] was 17 h.

As for `Cc1nc(Nc2ncc(C(=O)Nc3c(C)cccc3Cl)s2)cc(N2CCN(CCO)CC2)n1` [dasatinib], the cells remaining resistant in the series on Mia Paca-2 (Mia Paca-2, dasatinib alone >0.1 μM) is given as less than 50%.

In the case of `Cc1ccc(NC(=O)c2ccc(CN3CCN(C)CC3)cc2)cc1Nc1nccc(-c2cccnc2)n1` [imatinib], the “response of Mia Paca-2 cells to gemcitabine after pre-incubation with TKI” value in the series on Mia Paca-2 is given as “did not result in an increased response”. Besides, the “Mia Paca-2 cell proliferation, TKI alone” value in the series on Mia Paca-2 (imatinib alone 10 μM) is “not inhibited”.
